A short description of series [1]: Inhibition of PAK1/COX2 in human A549 cells harboring Ki-RAS mutant assessed as cell growth inhibition measured after 72 hrs by trypan blue assay. Format: cell-based. As to conditions: A549, 72 h.
For series [2], the target named is Serine/threonine-protein kinase PAK 1 (Homo sapiens, UniProt Q13153). Kind of series: Inhibition of PAK1 in human A549 cells using myelin basic protein as substrate preincubated for 24 hrs followed by PAK1 immunoprecipation and substrate addition measured after 60 mins by ATP-Glo kinase assay.
Sequence of Serine/threonine-protein kinase PAK 1 (Q13153 whole entry): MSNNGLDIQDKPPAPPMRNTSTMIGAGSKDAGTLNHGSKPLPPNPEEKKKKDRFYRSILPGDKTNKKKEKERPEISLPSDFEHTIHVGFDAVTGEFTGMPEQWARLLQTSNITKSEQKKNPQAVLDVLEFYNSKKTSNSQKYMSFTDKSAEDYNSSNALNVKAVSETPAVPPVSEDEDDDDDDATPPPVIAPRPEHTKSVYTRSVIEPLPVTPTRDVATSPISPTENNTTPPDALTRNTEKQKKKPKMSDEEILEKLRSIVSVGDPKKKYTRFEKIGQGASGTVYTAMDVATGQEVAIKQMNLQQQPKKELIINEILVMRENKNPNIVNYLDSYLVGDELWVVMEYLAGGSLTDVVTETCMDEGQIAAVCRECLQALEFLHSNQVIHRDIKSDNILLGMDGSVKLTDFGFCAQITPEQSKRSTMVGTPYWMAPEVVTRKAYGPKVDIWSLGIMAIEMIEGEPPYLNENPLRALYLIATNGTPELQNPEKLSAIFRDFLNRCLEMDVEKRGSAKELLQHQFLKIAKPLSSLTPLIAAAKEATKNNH
Series [3] is described as follows: Drug metabolism in human A549 cells assessed as mitochondrial reductase mediated azo dye formation by colorimetric method. The format is ADME, cell-based.
The test system of the next series is EMT6. Briefly: Cytotoxicity against multidrug-resistant mouse EMT6 cells at 100 uM measured after 24 hrs by MTT assay. The format is functional, cell-based.
A short description of series [4]: Drug-uptake in multidrug-resistant mouse EMT6 cells at 100 uM measured after 1 hr by HPLC method. The format is ADME, cell-based. To be noted: emt6, 1 h.
The nature of series [5]: Drug-uptake in multidrug-resistant mouse EMT6 cells at 100 uM measured after 6 hrs by HPLC method. The format is ADME, cell-based. As to conditions: emt6, 6 h.
For another series, the system named is LIM1899. Kind of series: Cytotoxicity against human LIM1899 cells up to 100 uM measured after 24 hrs by trypan blue assay. Format: functional, cell-based.
The target in the next series is Rho GTPase Rac1/CDC42 (Homo sapiens, UniProt P60953+P63000). Kind of series: Inhibition of RAC1/CDC42 in human ovarian cancer cells. The format is cell-based.
A short description of series [6]: Inhibition of PAK1/COX2 in human A549 cells harboring Ki-RAS mutant assessed as cell growth inhibition measured after 72 hrs by MTT assay. Format: cell-based. As to conditions: A549, 72 h.
The subject of a further series is B16-F10. Briefly: Cytotoxicity against PAK1-independent mouse B16F10 cells assessed as cell growth inhibition measured after 72 hrs by MTT assay. The format is functional, cell-based. To be noted: B16-F10, 72 h.
Series [7] deals with T1, Prostaglandin G/H synthase 2 (Homo sapiens, UniProt P35354).
T1 sequence (P35354 whole entry): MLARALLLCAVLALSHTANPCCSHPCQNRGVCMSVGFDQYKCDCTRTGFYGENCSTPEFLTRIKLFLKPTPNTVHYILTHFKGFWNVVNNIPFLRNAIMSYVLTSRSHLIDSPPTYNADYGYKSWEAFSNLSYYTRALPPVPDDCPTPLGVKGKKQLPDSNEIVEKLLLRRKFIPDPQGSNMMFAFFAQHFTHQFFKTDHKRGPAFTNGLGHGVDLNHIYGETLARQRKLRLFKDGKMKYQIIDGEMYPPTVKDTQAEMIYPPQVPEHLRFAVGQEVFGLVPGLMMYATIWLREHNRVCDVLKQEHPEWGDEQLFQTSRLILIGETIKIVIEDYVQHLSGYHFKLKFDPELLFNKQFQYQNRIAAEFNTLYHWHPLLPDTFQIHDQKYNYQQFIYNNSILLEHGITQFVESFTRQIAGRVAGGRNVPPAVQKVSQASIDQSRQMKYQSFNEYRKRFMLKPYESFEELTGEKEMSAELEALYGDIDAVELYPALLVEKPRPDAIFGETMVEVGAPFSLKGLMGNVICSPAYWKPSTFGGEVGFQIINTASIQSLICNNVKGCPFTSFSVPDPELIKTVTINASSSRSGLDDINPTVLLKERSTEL
Kind of series: Inhibition of recombinant human COX2 using arachidonic acid as substrate measured after 2 to 5 mins.

Calls of active or inactive are those of the source. No cut-off for these calls is given here.

For `COc1ccccc1-n1cc(COC(=O)C2CCn3c(C(=O)c4ccccc4)ccc32)nn1` (stereo not given), the IC50 in [1] stood at 24 nM; in series [2], 65 nM. Besides, the Drug metabolism result in series [3] is reported as “Metabolite_Detected”. The result in the series with EMT6 and in the series on LIM1899 was inactive. Besides, the Drug uptake was 3.75 nmol in series [4] and “Not Active” in series [5].

For the compound `O=C(c1ccccc1)c1ccc2n1CC[C@H]2C(=O)O`, the IC50 at Rho GTPase Rac1/CDC42 stood at 1000 nM.

For the compound `O=C(c1ccccc1)c1ccc2n1CCC2C(=O)O` (stereo not given) [KETOROLAC], the IC50 in [6] is 13000 nM; in the series on B16-F10 it was 30000 nM; in series [2] it was 36000 nM; in series [7] it was 140 nM; against Rho GTPase Rac1/CDC42 it was 2000 nM. For the same compound, the outcome in the series on EMT6 was inactive. Also, the Drug uptake in [4] was 0.37 nmol.
